Measurements from US6310247A, “7-aryl-6(Z)-heptatrienoic acid retinamides” (Hoffmann-LA Roche Inc., priority 1999, dated 2001).
Entries after “also recorded” stand apart in the source; their conditions may differ. Like-named read-outs stand apart in the source and are kept apart here.

What was measured:
[1] = tested on: RAR α, β and γ receptors; conditions: cited from earlier work
[2] = tested on: tumors; conditions: cited from earlier work
[3] = tested on: retinoic acid X α, β and γ receptors (RXR); conditions: cited from earlier work
[4] = tested on: human carcinoma cells; conditions: in vitro; cited from earlier work
[5] = tested on: tumor cells; conditions: cited from earlier work; for Differentiation of certain tumor cells (in words): in vitro
[6] = tested on: RKO cells; assay: Apoptosis: cell death detection by ELISA, RKO (colorectal carcinoma); format: cell-based, human; conditions: Homo sapiens, RKO, 10 uM, read-out: Fold induction of apoptosis, internal positive control (cont.)
Description: Colorectal carcinoma, human (RKO) obtained from Dr. Bernie Vogelstein, were grown in Gibco's Delbecco Minimum Essential media (DMEM), high glucose, supplemented with sodium pyruvate, 10% FBS and 13 ng/mL gentamicin. Cells were incubated at 37° C., 4.5% CO2 and 95.5% humidified air.
(§1) 2. Apoptosis: Cell death detection by ELISA:
(§2) Compounds of formula 1 were tested for the ability to cause apoptosis as follows:
(§3) Cells and media were collected, cells were pelleted, resuspended in 100 μl lysis buffer (50 mM Tris-Cl (pH=8.0), 20 mM EDTA, 1% NP-40e) and incubated 30 minutes at 4° C. to lyse. Cell debris was spun down and an aliquot (30 μl) of the […] was removed for protein determination and stored at -20° C. An additional 280 μl of lysis buffer, was added, mixed thoroughly and spun down at 14,000 RPM for 10 minutes at 4° C. An aliquot was removed (180 μl) and the sample was stored at -20° C. until testing.
(§4) A commercially available apoptosis detection kit, obtained from Boehringer Mannheim (Cat. No. 1544-674), was used as per the directions provided with the kit (Cell Death Detection ELISA). However, the protocol was modified in that a 1:40 to 1:100 dilution of sample was prepared, rather than the recommended 1:10 dilution, due to the increase in cell number used to prepare the sample extract and the subsequent increase in ELISA reactivity. The assay measures apoptosis by quantifying the amount of nucleosomal fragmentation from the extracts of cells treated with the test compounds (samples). These nucleosomal fragments, generated by the activation of endonucleases, are a known downstream effector of apoptosis. Antihistone antibodies are used to fix any nucleosomal fragments in the sample to the well of the microtiter plates. The sample is then incubated with anti-DNA antibodies conjugated to peroxidase and subsequently incubated with the peroxidase substrate, ABTS. The resulting colorimetric change is measured spectrophotometrically at 405/490nm.
(§5) The total protein content of each sample was determined for the purpose of normalizing the ELISA values to amount of sample loaded. Microplate assay protocol described in the instruction manual, for (Biorad DC Assay, Cat.#500-0116) section 5.2. The protein concentrations were calculated based upon a linear regression curve.
(§6) d) ELISA assay calculations
(§7) Relative ELISA O.D. readings are determined by subtracting the ELISA plate background O.D. value. No drug control O.D. value (lysis buffer only) was subtracted from sample O.D. value. A correction coefficient (CC), based on the sample protein concentration compared to no drug control, was determined to correct the sample O.D. following subtraction of the background O.D. (BCS O.D.). The fold increase over no drug control is calculated and normalized to the total protein concentration of the samples by multiplying against the correction coefficient.
(§8) To determine the fold increase in ELISA O.D., obtain the following O.D. measurements:
(§9) ELISA plate background--lysis buffer only (EPB);
(§10) no drug treated control--cell sample treated with DMSO (NDT);
(§11) drug treated sample--cell sample treated with a compound of formula 1 (DT) Subtract EPB from NDT (NDT-EPB) and DT (DT-EPB). The fold increase of the treated over the control is then (DT-EPB)/(NDT-EPB).
(§12) To determine the total protein concentration of the samples, obtain the total protein concentration in mg/ul calculated using standard linear regression formula (y=mx+b) based on BSA standards. B=ELISA background. Protein concentration (PC)(mg/ml)=(sample absorbance-b)/x.
(§13) Correction coefficient (cc) is (NDT)(PC)/(DT)(PC).
(§14) Determine fold increase of ELISA (FT) normalized to total PC:
(§15) nDT is DT×cc (which is DT O.D. normalized to PC)
(§16) nNDT is NDT×cc (which is NDT O.D. normalized to PC)
(§17) FI normalized to PC is nDT/nNDT.

[7] = tested on: H1299 cells; assay: Apoptosis: cell death detection by ELISA, H1299 (lung large cell carcinoma); format: cell-based; conditions: Homo sapiens, NCI-H1299, 10 uM, read-out: Fold induction of apoptosis, internal positive control (cont.)
Description: Lung, large cell carcinoma, human (H1299), obtained from ATCC (CRL-5803), were grown in Gibco's Delbecco Minimum Essential media (DMEM), high glucose, supplemented with sodium pyruvate, 10% FBS and 13 ng/mL gentamicin. Cells were incubated at 37° C., 4.5% CO2 and 95.5% humidified air.
as §1, §2, §3, §4, §5, §6, §7, §8, §9, §10, §11, §12, §13, §14, §15, §16, §17

[8] = tested on: MDA-435 cells; assay: Apoptosis: cell death detection by ELISA, MDA-435; format: cell-based, human; conditions: for Fold induction of apoptosis, internal positive control (cont.) / fold induction at 10 µM: 10 uM; for fold induction at 10 µM / fold induction at 1 µM / fold induction at 3.3 µM: Homo sapiens
Description: ER- breast carcinoma, human (MDA-435) obtained from Dr. Janet Price, MDA Cancer Center, Houston, Tex., were grown in Gibco's RPMI 1640 media supplemented with sodium pyruvate, 10% FBS and 13 ng/mL gentamicin. Cells were incubated at 37° C., 4.5% CO2 and 95.5% humidified air.
as §1, §2, §3, §4, §5, §6, §7, §8, §9, §10, §11, §12, §13, §14, §15, §16, §17

[9] = tested on: ZR-75-1 cells; assay: Apoptosis: cell death detection by ELISA, ZR-75-1; format: cell-based, human; conditions: for fold induction at 10 µM / fold induction at 1 µM / fold induction at 3.3 µM: Homo sapiens
Description: ER+ breast carcinoma, human (ZR-75-1) obtained from ATCC (CRL 1500), were grown in Gibco's RPMI 1640 media supplemented with sodium pyruvate, 10% FBS and 13 ng/mL gentamicin. Cells were incubated at 37° C., 4.5% CO2 and 95.5% humidified air.
as §1, §2, §3, §4, §5, §6, §7, §8, §9, §10, §11, §12, §13, §14, §15, §16, §17

[10] = tested on: ER+ and ER- breast carcinoma cells; assay: Induction of apoptosis in ER+ and ER- carcinoma cells (statements in words); format: cell-based, human
Description: as §1, §2, §3
A commercially available apoptosis detection kit, obtained from Boehringer Mannheim (Cat. No. 1544-674), was used as per the directions provided with the kit (Cell Death Detection ELISA). […] The assay measures apoptosis by quantifying the amount of nucleosomal fragmentation from the extracts of cells treated with the test compounds (samples). […] The resulting colorimetric change is measured spectrophotometrically at 405/490nm.
The total protein content of each sample was determined for the purpose of normalizing the ELISA values to amount of sample loaded. […] The protein concentrations were calculated based upon a linear regression curve. […]
as §7, with “No drug control O.D. value (lysis buffer only) was subtracted from sample O.D. value.” left out, “coefficient. […]” for “coefficient.”
To determine the total protein concentration of the samples, obtain the total protein concentration in mg/ul calculated using standard linear regression formula (y=mx+b) based on BSA standards. […] Protein concentration (PC)(mg/ml)=(sample absorbance-b)/x. […]

[11] = tested on: ER+ and ER- breast carcinoma cells; conditions: cited from earlier work
[12] = cited from earlier work
[13] = MDA435, 24 h, 24 hrs, read-out: Fold induction of apoptosis compared to no drug control
[14] = MDA435, 48 h, 48 hrs, read-out: Fold induction of apoptosis compared to no drug control
[15] = MDA435, 72 h, 72 hrs, read-out: Fold induction of apoptosis compared to no drug control
[16] = ZR-75-1, 24 h, 24 hrs, read-out: Fold induction of apoptosis compared to no drug control
[17] = ZR-75-1, 48 h, 48 hrs, read-out: Fold induction of apoptosis compared to no drug control
[18] = ZR-75-1, 72 h, 72 hrs, read-out: Fold induction of apoptosis compared to no drug control

For `CC1=C(/C=C/C(C)=C\C=C\C(C)=C\C(=O)O)C(C)(C)CCC1` [9-cis RA], the “Binding to RAR (in words)” value [1] is listed as “bind”, the “Tumor regression (in words)” value ([2]; 9-cis RA and its analogs) is listed as “cause tumor regression” and the “Binding to RXR (in words)” value [3] is listed as “bind”.
For `CC(=O)O[C@H]1C(=O)[C@@]2(C)[C@H]([C@H](OC(=O)c3ccccc3)[C@]3(O)C[C@H](OC(=O)[C@H](O)[C@@H](NC(=O)c4ccccc4)c4ccccc4)C(C)=C1C3(C)C)[C@]1(OC(C)=O)CO[C@@H]1C[C@@H]2O` [Taxol], the “Induction of apoptosis in human carcinoma cells (in words)” value [4] is given as “induce apoptosis”.
In the case of `CC1=C(/C=C/C(C)=C/C=C/C(C)=C/C(=O)O)C(C)(C)CCC1` [All-trans RA], the “Ability to induce apoptosis (in words)” value [5] is given as “very limited” and the “Differentiation of certain tumor cells (in words)” value [5] is given as “cause differentiation of certain tumor cells in vitro”.
In the case of `CC1=C(/C=C/C(C)=C/C=C/C(C)=C\C(=O)O)C(C)(C)CCC1` [13-cis RA], the “Ability to induce apoptosis (in words)” value [5] is listed as “very limited” and the “Differentiation of certain tumor cells (in words)” value [5] is listed as “cause differentiation of certain tumor cells in vitro”.
`CC1=C(/C=C/C(C)=C\C=C\C(C)=C\C(=O)Nc2ccc(O)cc2)C(C)(C)CCC1` [9-cis 4-HPR, reference compound] gave a fold induction at 10 µM ([6]; 24 hrs) of 8, a fold induction at 10 µM ([6]; 48 hrs) of 9 and a fold induction at 10 µM ([6]; 72 hrs) of 5. It also gave a fold induction at 10 µM ([7]; 24 hrs) of 1, a fold induction at 10 µM ([7]; 48 hrs) of 15 and a fold induction at 10 µM ([7]; 72 hrs) of 25. For the same molecule, the “Fold induction of apoptosis, internal positive control (cont.)” value (from here on “Fold induction of apoptosis”) ([8]; 48 hrs, 2880 min) was 10 fold, the “Fold induction of apoptosis” value ([8]; 72 hrs, 4320 min) was 12 fold and the fold induction at 10 µM ([8]; MDA435, 48 h, 48 hrs, read-out: Fold induction of apoptosis, internal positive control (cont.)) was 15. For the same molecule, the fold induction at 10 µM ([8]; MDA435, 72 h, 72 hrs, read-out: Fold induction of apoptosis, internal positive control (cont.)) was 19, the “Fold induction of apoptosis” value ([9]; 24 hrs, 10 uM, 1440 min) was 2 fold and the fold induction at 10 µM ([9]; ZR-75-1, 24 h, 24 hrs, 10 uM, read-out: Fold induction of apoptosis, internal positive control (cont.)) was 1.
In the case of `C/C(=C/C=C/C(C)=C/C(=O)O)c1cc(C(F)(F)F)cc(C(F)(F)F)c1` [(2E,4E,6Z)-7-[3,5-bis(trifluoromethyl)phenyl]-3,7-dimethyl-2,4,6-heptatrienoic acid], the “Induction of apoptosis (in words)” value ([10]; 72 h, compared with the corresponding amide) is reported as “induces considerably lower amounts apoptosis only after 72 h”, the “Activity against ER- and ER+ carcinoma cells (induction of apoptosis)” value ([10]; ER- and ER+ carcinoma cells) is reported as “inactive” and the fold induction at 1 µM [8, 13] is reported as 1. It also gave a fold induction at 3.3 µM [8, 13] of 1, a fold induction at 10 µM [8, 13] of 1 and a fold induction at 1 µM [8, 14] of 1. It also gave a fold induction at 3.3 µM [8, 14] of 1, a fold induction at 10 µM [8, 14] of 1 and a fold induction at 1 µM [8, 15] of 1. The fold induction at 3.3 µM [8, 15] was 1, the fold induction at 10 µM [8, 15] was 2 and the fold induction at 1 µM [9, 16] was 1. For the same molecule, the fold induction at 3.3 µM [9, 16] was 1, the fold induction at 10 µM ([9]; ZR-75-1, 24 h, 24 hrs, 10 uM, read-out: Fold induction of apoptosis compared to no drug control) was 1 and the fold induction at 1 µM [9, 17] was 1. For the same molecule, the fold induction at 3.3 µM [9, 17] was 1, the fold induction at 10 µM ([9]; ZR-75-1, 48 h, 48 hrs, 10 uM, read-out: Fold induction of apoptosis compared to no drug control) was 1 and the fold induction at 1 µM [9, 18] was 1. The fold induction at 3.3 µM [9, 18] was 1 and the fold induction at 10 µM ([9]; ZR-75-1, 72 h, 72 hrs, 10 uM, read-out: Fold induction of apoptosis compared to no drug control) was 2.
In the case of `COc1cccc2c1C(=O)c1c(O)c3c(c(O)c1C2=O)C[C@@](O)(C(=O)CO)C[C@@H]3O[C@H]1C[C@H](N)[C@H](O)[C@H](C)O1` [Adriamycin], the “Induction of apoptosis in human carcinoma cells (in words)” value [4] is given as “induce apoptosis”.
For `O=c1[nH]cc(F)c(=O)[nH]1` [5FU], the “Induction of apoptosis in human carcinoma cells (in words)” value [4] is listed as “induce apoptosis”.
In the case of `CC1=C(/C=C/C(C)=C/C=C/C(C)=C/C(=O)Nc2ccc(O)cc2)C(C)(C)CCC1` [4-HPR, all trans 4-hydroxyphenyl retinamide], the “Growth inhibition and apoptosis in breast carcinoma cells (in words)” value [11] is given as “capable of inhibiting cell growth and inducing apoptosis; also recorded: appears to induce apoptosis and cause inhibition of cell growth”, the “Chemopreventative activity (in words)” value ([2]; against a number of malignancies) is given as “potent chemopreventative agent” and the “Tumor regression (in words)” value ([2]; in vivo) is given as “capable of tumor regression in vivo”. For the same molecule, the “Effect on tumor formation and tumor growth (in words)” value ([2]; via apoptosis) was “inhibit tumor formation and tumor growth via apoptosis”, the “Major toxicity seen in the clinic” value [12] was “night vision impairment” and the “Induction of apoptosis in retinoid-resistant cells (in words)” value ([5]; cells resistant to retinoids that activate RARs efficiently) was “effective in inducing apoptosis”. The “Growth inhibition and apoptosis in other tumor cell types (in words)” value ([5]; including lung carcinoma cell and hematopoetic malignancies) was “inhibit cell growth and to induce apoptosis”.
